Assay results from patent US8138170B2, “Immunosuppressive Ningalin compounds” (Memorial Sloan-Kettering Cancer Center, priority 2004, dated 2012).
Values joined by “and” are separate entries in the source; they are usually repeats but may differ in a detail not shown here. Equal entries are not always repeated.

Columns and labels:
human lymphocytes = experiment: Inhibition of PHA-stimulated lymphocyte proliferation ([3H]thymidine incorporation); type: cell-based; conditions: PHA-stimulated human lymphocyte proliferation; read-out: Immunosuppressive Effect (IC50 in μM) [B]
Text: Phytohemagglutinin (phytostigma or “PHA”) induces proliferation of human lymphocytes.

[1] = Cytotoxicity measured by cell proliferation inhibition; type: cell-based
[2] = test system: Lewis (LEW) heart allografts; experiment: Heterotopic heart transplantation in rats; type: in vivo, Rat ACI recipients
Protocol: (§1) Heterotopic heart transplantation was performed in rats and mice. In brief, heart transplantation was performed by previously described modified method. Hearts harvested from donors were perfused with chilled saline and immediately transplanted to recipients under full anesthesia. Suture 10-0 in rats and 12-0 in mice (Ethicon; Somerville, N.J.) was used to perform anastomosis of aorta to aorta and pulmonary artery to vena cava. Heartbeat was evaluated daily and the day of complete cessation was considered rejection. Animals that died within three days after transplantation were excluded from the analysis (less than 5%).
Rat ACI (RT1*) recipients of Lewis (LEW; RT1^1) heart allografts were untreated or were treated for 7 days by daily (QDx7) i.p. injections with 20 mg/kg N5. Untreated recipients rejected heart allografts in a mean survival time (MST) of 8.40±0.55 (n=5).

C57BL/6 heart allografts = experiment: Heterotopic heart transplantation in mice; type: in vivo, Balb/c mice
Protocol: as §1
Mice were also transplanted with heart allografts. In particular, untreated Balb/c (H-2^d) recipients rejected C57BL/6 (H-2^b) heart allografts at a MST of 7.8±0.84 days (n=5). Treatment with 40 mg/kg N5, QDx7, extended heart allograft survival to 13.33±2.52 days, which increased life span 71% (n=3; p<0.03).
Mice heart allografts were treated with 20 mg/kg of N3, QDx7, i.p. In particular, untreated Balb/c (H-2^d) recipients rejected C57BL/6 ([…]) heart allografts at a MST of […] days (n=5). Treatment with 20 mg/kg of N3 (i.e., one-half of dose of N5) extended heart allograft survival to 18.75±3.86 days (n=4; p<0.0005), an increase in lifespan of 140%.

LEW kidney allografts = experiment: Orthotopic kidney transplantation in rats; type: in vivo, ACI rats
Protocol: Orthotopic kidney transplantation was performed in rats. In particular, the left kidney of donor was perfused through the aorta with heparinized saline (4° C.) and then harvested after the renal artery, renal vein, and ureter were cut off. End-to-end anastomosis of donor and recipient renal arteries and veins were performed using 10-0 nylon suture (Ethicon; Somerville, N.J.). The recipients' native kidneys were removed on the day of transplantation. Animals that died within three days after transplantation were excluded from the analysis (less than 5%).
The effect of N5 (administered in DMSO, 20 mg/kg, i.p. QDx7) on kidney allograft survival was examined. Although untreated ACI recipients acutely rejected LEW kidney allografts at 8.8±0.75 days, a 7-day i.p. daily treatment extended survivals to 26.50±2.12 days, which increased lifespan 200% (n=2; p<0.03).

[3] = test system: carrageenan-induced paw edema; experiment: Carrageenan-induced paw edema; type: in vivo, B6D2F1 mice; conditions: for Pedis Area: individual mice 1-4; for Pedis Area, Mean: mean of 4 mice
Protocol: Carrageene (1%, 30 μl) was injected i.m. into the pedis of B6D2F1 mice (4 mice/group) to induced edemic inflammation at 0 hours. N3, N5 (i.p. injection) or oral administration of aspirin 500 mg/kg, or topical application of hydrocortisone cream (1%) or Lidex cream (0.05%) to the pedis skins were given at −1, 6, 12 and 24 hours. The control mice received dimethylsulfoxide (the vehicle of ningalins). The pedis areas (in mm^2) were measured at 0, 3, 6, 12, 24, 36 and 48 hours.

## COc1ccc(CCn2c(C(=O)N(C)C)c(-c3ccc(OC)c(OC)c3)c3c4cc(OC)c(OC)cc4oc(=O)c32)cc1OC [Ningalin N5, 1-(3,4-Dimethoxy-phenyl)-3-[2-(3,4-dimethoxy-phenyl)-ethyl]-7,8-dimethoxy-4-oxo-3,4-dihydro-5-oxa-3-aza-cyclopenta[α]naphthalene-2-carboxylic acid dimethylamide]
Human lymphocytes
  IC50: 0.17 ± 0.01 µM
[1]
  IC50: 17.1 ± 4.6 µM
[2]; ACI recipients of LEW heart, N5 20 mg/kg i.p. QDx7, 20 mg/kg
  MST ± SD days (heart allograft survival): 18.67±2.52 days and 18.67 ± 2.5 days
[2]; heart allograft, N5 20 mg/kg i.p. QDx7, vs untreated
  increased life span: 122%
[2]; heart, N5 20 mg/kg, 20 mg/kg
  Survival days (individual animals): 18 days and 19 days and 21 days
C57BL/6 heart allografts; B6 heart to Balb/c, N5 40 mg/kg QDx7, 40 mg/kg
  MST ± SD days (heart allograft survival): 13.33±2.52 days and 13.35 ± 2.52 days
C57BL/6 heart allografts; heart allograft, N5 40 mg/kg QDx7, vs untreated
  increased life span: 71%
C57BL/6 heart allografts; heart, N5 40 mg/kg, 40 mg/kg
  Survival days (individual animals): 11 days and 13 days and 16 days
LEW kidney allografts; ACI recipients of LEW kidney, N5 in DMSO 20 mg/kg i.p. QDx7
  MST ± SD days (kidney allograft survival): 26.50±2.12 days
LEW kidney allografts; kidney allograft, N5 20 mg/kg i.p. QDx7, vs untreated
  increased life span: 200%
LEW kidney allografts; kidney, N5 20 mg/kg, 20 mg/kg
  Survival days (individual animals): 26 days and 28 days
[3]; 0 hr, aspirin 500 mg/kg oral, N3 100 mg/kg i.p., N5 50 mg/kg i.p., hydrocortisone cream 1%, Lidex cream 0.05% topical, given at −1, 6, 12, 24 hours
  Pedis Area: 100 mm^2
[3]; 0 hr, doses as E35
  Pedis Area, Mean: 100 mm^2
[3]; 3 hr, doses as E35
  Pedis Area: 137.1 mm^2 and 139.2 mm^2 and 143.9 mm^2 and 132 mm^2
  Pedis Area, Mean: 138.1 mm^2
[3]; 6 hr, doses as E35
  Pedis Area: 138.1 mm^2 and 144.3 mm^2 and 146.9 mm^2 and 145.4 mm^2
  Pedis Area, Mean: 143.7 mm^2
[3]; 12 hr, doses as E35
  Pedis Area: 125.7 mm^2 and 124.7 mm^2 and 140.8 mm^2 and 141.2 mm^2
  Pedis Area, Mean: 133.1 mm^2
[3]; 24 hr, doses as E35
  Pedis Area: 125.7 mm^2 and 161.6 mm^2 and 128.6 mm^2 and 142.3 mm^2
  Pedis Area, Mean: 129.6 mm^2
[3]; 36 hr, doses as E35
  Pedis Area: 120 mm^2 and 118.6 mm^2 and 127.6 mm^2 and 142.3 mm^2
  Pedis Area, Mean: 127.1 mm^2
[3]; 48 hr, doses as E35
  Pedis Area: 120 mm^2 and 117.5 mm^2 and 130.6 mm^2 and 142.3 mm^2
  Pedis Area, Mean: 127.6 mm^2
[3]; N5 50 mg/kg i.p., N3 100 mg/kg i.p., all drugs: at 12-48 hours
  anti-inflammatory effect (FIG. 3): produced an anti-inflammatory effect
